Calls of active or inactive are those of the source. No cut-off for these calls is given here.

For test [1], the system named is H9c2. Briefly: Cardioprotective activity in rat H9c2 cells assessed as reduction in hypoxia/reoxygenation-induced intracellular Zn2+ level depletion by measuring improvement in intracellular TSQ fluorescence intensity at 10 uM treated at the onset of 1 hr reoxygenation period in the presence of ZnCl2 by TSQ staining based fluorescence analysis relative to control. In kind it is functional.

Test [2] relates to H9c2. In words: Cardioprotective activity against hypoxia/reoxygenation-induced injury in rat H9c2 cells assessed as cell viability at 10 uM treated after 8 hrs of hypoxia and before 16 hrs of reoxygenation period by MTT assay. In kind it is functional, cell-based. A general note: Tetrazolium dyes change colour on reduction, which living cells bring about.
The test system of test [3] is H9c2. Briefly: Cardioprotective activity against hypoxia/reoxygenation-induced injury in rat H9c2 cells assessed as cell viability at 10 uM treated after 8 hrs of hypoxia and before 16 hrs of reoxygenation period in presence of ZnCl2 by MTT assay. In kind it is functional. As to conditions: read-out: Activity.
The subject of test [4] is H9c2. In words: Inhibition of apoptosis in hypoxia/reoxygenation induced injury in rat H9c2 cells assessed as caspase-3 activity at 10 uM treated after 8 hrs of hypoxia and before 16 hrs of reoxygenation period in presence of ZnCl2 (reference value: 187%). More on the design: scale not given: the % may be the effect or the level left. In kind it is functional.
Test [5] relates to H9c2. In words: Inhibition of apoptosis in hypoxia/reoxygenation induced injury in rat H9c2 cells assessed as viable cells at 10 uM treated after 8 hrs of hypoxia and before 2 hrs of reoxygenation period in presence of ZnCl2 by AnnexinV-FITC/propidium iodide staining based flow cytometry analysis (reference value: 55.35%). In kind it is functional. As to conditions: read-out: Activity. (A flow cytometer gives signals particle by particle.)

The subject of test [6] is H9c2. Briefly: Inhibition of apoptosis in hypoxia/reoxygenation induced injury in rat H9c2 cells assessed as early apoptotic cells at 10 uM treated after 8 hrs of hypoxia and before 2 hrs of reoxygenation period in presence of ZnCl2 by AnnexinV-FITC/propidium iodide staining based flow cytometry analysis (reference value: 36.45%). Also on record: scale not given: the % may be the effect or the level left. It counts as functional.

Test [7] in a line: Zinc ionophore activity assessed as uptake of zinc ions into liposomes by measuring increase in liposome-encapsulated FluoZin3-fluorescence at 10 uM measured after 1 hr in presence of ZnCl2 by fluorescence analysis relative to control.
A short description of test [8]: Zinc ionophore activity assessed as uptake of zinc ions into liposomes by measuring increase in liposome-encapsulated FluoZin3-fluorescence at 10 uM measured after 1 hr in presence of ZnCl2 and TPEN by fluorescence analysis.
The test system of test [9] is H9c2. In words: Inhibition of apoptosis in hypoxia/reoxygenation induced injury in rat H9c2 cells assessed as late apoptotic cells at 10 uM treated after 8 hrs of hypoxia and before 2 hrs of reoxygenation period in presence of ZnCl2 by AnnexinV-FITC/propidium iodide staining based flow cytometry analysis (reference value: 7%). In kind it is functional. More on the design: scale not given: the % may be the effect or the level left.

The test system of test [10] is H9c2. In words: Inhibition of apoptosis in hypoxia/reoxygenation induced injury in rat H9c2 cells assessed as necrotic cells at 10 uM treated after 8 hrs of hypoxia and before 2 hrs of reoxygenation period in presence of ZnCl2 by AnnexinV-FITC/propidium iodide staining based flow cytometry analysis (reference value: 1.25%). In kind it is functional. Also on record: scale not given: the % may be the effect or the level left.

The test system of test [11] is H9c2. Briefly: Inhibition of apoptosis in hypoxia/reoxygenation induced injury in rat H9c2 cells assessed as viable cells at 10 uM treated after 8 hrs of hypoxia and before 2 hrs of reoxygenation period by AnnexinV-FITC/propidium iodide staining based flow cytometry analysis (reference value: 55.35%). As to conditions: read-out: Activity. It counts as functional.

In test [12] the test system is H9c2. In words: Inhibition of apoptosis in hypoxia/reoxygenation induced injury in rat H9c2 cells assessed as early apoptotic cells at 10 uM treated after 8 hrs of hypoxia and before 2 hrs of reoxygenation period by AnnexinV-FITC/propidium iodide staining based flow cytometry analysis (reference value: 36.45%). It counts as functional. Also on record: scale not given: the % may be the effect or the level left.

The test system of test [13] is H9c2. In words: Inhibition of apoptosis in hypoxia/reoxygenation induced injury in rat H9c2 cells assessed as late apoptotic cells at 10 uM treated after 8 hrs of hypoxia and before 2 hrs of reoxygenation period by AnnexinV-FITC/propidium iodide staining based flow cytometry analysis (reference value: 7%). It counts as functional. Also on record: scale not given: the % may be the effect or the level left.

The subject of test [14] is H9c2. In words: Inhibition of apoptosis in hypoxia/reoxygenation induced injury in rat H9c2 cells assessed as late necrotic cells at 10 uM treated after 8 hrs of hypoxia and before 2 hrs of reoxygenation period by AnnexinV-FITC/propidium iodide staining based flow cytometry analysis (reference value: 1.25%). In kind it is functional. More on the design: scale not given: the % may be the effect or the level left.

In the case of `Oc1cc(O)c2c(c1)O[C@H](c1cc(O)c(O)c(O)c1)[C@H](O)C2` [EPIGALLOCATECHIN], the “fold change (FC)” value in the test with H9c2 [1] came to 1; in test [7] it was 8. Also, the outcome (in the test with H9c2 [2]; in [8]) was inactive. The figures for the viability at 10 µM with H9c2 [3], in the test on H9c2 [5] and in the test on H9c2 [11] were 52%, 61.8% and 47%, respectively. Besides, the Activity in the test with H9c2 [4] came to 158%; in the test on H9c2 [6], 26.47%; in the test on H9c2 [9] it was 6.72%; in the test with H9c2 [10] it was 5.05%; with H9c2 [12], 44.27%; with H9c2 [13] it was 4.77%. In addition, the Activity in the test with H9c2 [14] was 3.92%.

Take `O=C(O[C@@H]1Cc2c(O)cc(O)cc2O[C@@H]1c1ccc(O)c(O)c1)c1cc(O)c(O)c(O)c1` [EPICATECHIN GALLATE]: the “fold change (FC)” value in the test with H9c2 [1] amounted to 2.1; in test [7], 16. Besides, the result (in the test on H9c2 [2]; in [8]) was inactive. Also, the viability at 10 µM in the test with H9c2 [3] came to 60%; in the test on H9c2 [5] it was 73.5%; with H9c2 [11] it was 54.2%. In addition, the Activity in the test with H9c2 [4] amounted to 139%; in the test with H9c2 [6] it was 22.8%; with H9c2 [9], 2.32%; in the test on H9c2 [10] it was 1.42%; in the test on H9c2 [12], 37.4%; in the test on H9c2 [13], 7.32%. Also, in the test with H9c2 [14], the Activity was determined as 1.05%.

`Oc1c(I)cc(Cl)c2cccnc12`: the fold change (FC) in [7] amounted to 40. Also, the outcome in test [8] was inactive.

In the case of `O=C(O[C@@H]1Cc2c(O)cc(O)cc2O[C@@H]1c1cc(O)c(O)c(O)c1)c1cc(O)c(O)c(O)c1` [EPIGALOCATECHIN GALLATE], the results for the “fold change (FC)” value (in the test with H9c2 [1]; in test [7]) were 4 and 28, respectively. The outcome (with H9c2 [2]; in test [8]) was inactive. The viability at 10 µM stood at 78% in the test with H9c2 [3], 80.1% with H9c2 [5] and 52.5% in the test with H9c2 [11]. The Activity with H9c2 [4] is reported as 112%; with H9c2 [6], 16.12%; in the test on H9c2 [9] it was 2.72%; in the test with H9c2 [10], 0.97%; with H9c2 [12], 37.4%; in the test with H9c2 [13], 8.12%. Besides, in the test with H9c2 [14], the Activity stood at 2.02%.
